We go through one compound from patent US20130266636A1, “METHODS FOR BLOCKING CELL PROLIFERATION AND TREATING DISEASES AND CONDITIONS RESPONSIVE TO CELL GROWTH INHIBITION” (THE REGENTS OF THE UNIVERSITY OF CALIFORNIA, priority 2010, published 2013).

Entries after “also recorded” stand apart in the source; their conditions may differ.

Series [1] has as its system XPA-1-RFP pancreatic tumor xenografts. The experiment in a line: Orthotopic XPA-1-RFP pancreatic tumor xenograft in Nestin-GFP mice. It counts as in vivo. How it is done:
FIG. 16 and FIG. 17 illustrate data showing that KG5 inhibits pancreatic tumor growth and reduces tumor vascular density, as described in Murphy (2010) Proc. Natl. Acad. Sci. USA, Mar. 2, 2010; vol. 107(9): 4299-4304. FIGS. 16A and 16B, and FIGS. 17A and 17B: Real-time fluorescent imaging of XPA-1-RFP pancreatic tumor xenografts in the pancreas of Nestin-GFP mice (n=5/group) treated with either vehicle (FIG. 16A, 17A) or KG5 (FIG. 16B, 17B) (50 mg/kg, i.p., bid). Drug treatments were started 3 days after surgical orthotopic implantation (SOT) of XPA-1-RFP tumors, and tumor progression was monitored every 3 days by whole-animal imaging (Scale bar, 10 mm). FIG. 17(C) graphically illustrates a plot of tumor surface area over time for the vehicle- and KG5-treated groups, Tumor surface area was calculated by adding the total pixels of both the ventral and lateral images of the tumor. *P=0.034. FIG. 17(D) graphically illustrates average body weight of the mice measured each day of whole-animal imaging described in A and B. FIG. 16(C) graphically illustrates total weights of resected primary tumors on day 15 post-SOT. *P=0.022.
Animals were systemically treated with either vehicle or KG5 (50 mg/kg, bid) beginning 3 days after surgical orthotopic implantation (SOI) of a tumor fragment. Tumor growth was monitored noninvasively by whole-body imaging. […] Animals treated with KG5 produced an average tumor weight of 26.7 mg compared to 74.1 mg for vehicle-treated animals (FIG. 16C). At this time, GFP-labeled blood vessels were imaged and tumor-associated blood vessel density was quantified by measuring the ratio of total blood vessel length to tumor volume. […] The mean vessel length/tumor volume was 2.5 mm/mm^3 compared to 0.2 mm/mm^3 for vehicle and KG5, respectively.
FIG. 18 further illustrates data from the studies of FIG. 16 and FIG. 17: FIG. 18(A) and FIG. 18(B) illustrate representative fluorescent images of endothelial GFP expression (GFP expression driven by the Nestin promoter) within the XPA-1-RFP tumors after resection. Images were taken 15 days post-SOI (Scale bar, 200 μm); FIG. 18(C) illustrates a plot of tumor vessel density from images acquired as in E, Blood vessels imaged as in E were converted to length (mm) and normalized to tumor volume (mm^3). *P=0.01.

Series [2] deals with human breast (MDA-MB-231) carcinoma cell line. The experiment in a line: Cell viability assay in MDA-MB-231 cells. It counts as cell-based.
Series [3] has as its system human colon (HCT-116), pancreatic (Mia-Paca2, FG, XPA-1, BXPC3), breast (MDA-MB-231) and brain (U251) cancer cell lines. The experiment in a line: Cell cycle analysis of proliferating tumor cell lines treated with KG5. In kind it is cell-based. As to conditions: all proliferating tumor cell lines tested. How it is done: FIG. 40. Allosteric inhibition of RAF arrests proliferating cells at pro-metaphase. FIG. 40(a) Cell cycle analysis and G2/M quantification of human colon (HCT-116), pancreatic (Mia-Paca2, FG, XPA-1, BXPC3), breast (MDA-MB-231) and brain (U251) cancer cell lines untreated or treated for 20 hours with 5 μM of KG5. Error bars represent s.d. (n=4); * two tailed p value=0.0023 using Mann Whitney U test. FIG. 40(b) HCT-116 cells were cultured under low (30%) or high (90%) confluency and treated with 1 μM KG5 for 20 hours. […] Error bars represent s.d. (n=3); * two tailed p value=0.0021 using Mann Whitney U test. FIG. 40(c) HCT-116 and XPA-1 cells were treated for 20 hours with 1 μM of KG5, stained for α-tubulin/DNA, and cells arrested in pro-metaphase were quantified by confocal microscopy. Error bars represent s.d. (n=3); * two tailed p value=0.0008 using Mann Whitney U test. Lysates from the same cells were also analyzed by immunoblotting for the expression of the mitotic marker phospho-Histone H3 (inset). Data are representative of three independent experiments.
Cell cycle analysis was performed by flow cytometry following propidium iodide staining. Briefly, cells were harvested, fixed with ice cold methanol, treated for 45 min with 10 μg/ml of RNase and resuspended in PBS containing 10 μg/ml of PI, and analyzed by flow cytometry. […]

Series [4] deals with p21-activated kinase (PAK). Particulars: inferred from MEK S298; cited from earlier work.
In another series the target is CRAF (Homo sapiens, UniProt P04049). In words: Phospho-S338 CRAF immunoblot in XPA-1 cells. More on the design: total CRAF and total MEK of lysates from XPA-1 cells treated with PD0325901, Sorafenib, L-779450, PLX4720, KG5 or KG1; endogenous in cells; host or cells: XPA-1. In kind it is cell-based. As for the experimental part: FIGS. 6 and 7 illustrate immunoblot analysis of CRAF immunoprecipitated from XPA-1 cells treated with KG5 and KG38.
FIG. 13 illustrates immunoblot analysis of phospho-5338 CRAF, phospho-MEK, total CRAF and total MEK of lysates from XPA-1 cells treated with PD0325901, Sorafenib, L-779450, PLX4720, KG5 or KG1.
Immunoprecipitation and Immunoblot Analysis Cells were lysed in either NP40 lysis buffer (150 mM NaCl, 50 mM Tris Base pH 7.4, 1% NP40) or RIPA buffer (50 mM Tris pH 7.4, 100 mM NaCl, 0.1% SDS) supplemented with complete protease inhibitor mixture (Roche), 50 mM NaF and 1 mM Na3VO4 and centrifuged at 13,000×g for 10 min at 4° C. Protein concentration was determined by BCA assay. […] of protein were immunoprecipitated with […] of anti-Flag (Sigma), anti-CRAF (BD Pharmingen), anti-Plk1 (Abcam), anti-γ-Tubulin (sigma) or anti-cenpF (Santa Cruz) antibodies overnight at 4° C. followed by capture with 25 μl of protein A/G (Pierce). Beads were washed five times, eluted in boiling Laemmli buffer, resolved on 10% SDS-PAGE and immunoblotting was performed with anti-Plk1 antibody (Abcam), anti-CRAF antibody (BD Pharmingen), anti-Aurora A (Abcam), anti-phospho-S338 CRAF (Cell Signaling), anti-phospho-T210 Plk1 or anti-phospho-T288 Aurora A (Cell signaling) diluted 1:1000. For immunoblot analysis, […] of protein was boiled in […]

CRAF, sequence (P04049 whole entry): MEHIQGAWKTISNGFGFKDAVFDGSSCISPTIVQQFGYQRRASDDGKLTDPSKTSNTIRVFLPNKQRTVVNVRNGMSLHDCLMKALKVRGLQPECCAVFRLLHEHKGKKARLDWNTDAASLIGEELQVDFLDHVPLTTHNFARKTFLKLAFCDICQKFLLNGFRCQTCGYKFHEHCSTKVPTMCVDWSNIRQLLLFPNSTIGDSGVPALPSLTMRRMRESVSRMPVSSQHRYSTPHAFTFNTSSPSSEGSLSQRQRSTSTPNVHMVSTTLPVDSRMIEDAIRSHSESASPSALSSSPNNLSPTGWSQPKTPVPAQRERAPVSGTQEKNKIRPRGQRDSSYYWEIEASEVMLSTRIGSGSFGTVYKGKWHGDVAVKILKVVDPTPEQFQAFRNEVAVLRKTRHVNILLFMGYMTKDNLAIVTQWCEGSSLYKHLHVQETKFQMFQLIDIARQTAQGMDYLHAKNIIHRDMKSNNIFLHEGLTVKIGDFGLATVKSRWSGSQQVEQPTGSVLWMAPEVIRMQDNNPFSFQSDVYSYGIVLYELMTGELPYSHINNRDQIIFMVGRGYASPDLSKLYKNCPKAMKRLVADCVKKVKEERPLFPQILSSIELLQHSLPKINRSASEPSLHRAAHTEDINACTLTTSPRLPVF

In the case of `CSc1nc(N)cc(Oc2ccc(-c3nnc(Nc4cccc(C(F)(F)F)c4)[nH]3)cc2)n1` [KG5], in series [1] (50 mg/kg bid), the body weight entry is listed as “no weight loss” and the signs of lethargy result is on record as “did not demonstrate any signs of lethargy”. In addition, the “tumor growth by whole-body imaging” value in series [1] (50 mg/kg bid, 12 days post-SOI, compared to vehicle) is reported as “completely suppressed”. Moreover, the average tumor weight in series [1] (50 mg/kg i.p. bid from 3 days after SOI, resected primary tumors day 15 post-SOI, vehicle 74.1 mg) is 26.7 mg. The “mean vessel length/tumor volume” value in series [1] (50 mg/kg i.p. bid, 15 days post-SOI, vehicle 2.5 mm/mm^3) turned out to be 0.2 mm/mm^3. For the same compound, the cell viability entry in series [2] (MDA-MB-231) is recorded as “decrease cell viability”. In series [2] (MDA-MB-231 breast cancer cell viability assays), the EC50 entry is “approach picomolar (pM) EC50s”. For the same compound, in series [3], the “mitotic arrest and cell death” value was “mitotic arrest at pro-metaphase followed by cell death”; the “phospho-S338 CRAF” value is reported as “inhibition of phospho-S338 CRAF”. Moreover, in series [4], the PAK activity entry was “does not directly inhibit PAK activity”. Moreover, the “serine 338 phosphorylation on CRAF” value on CRAF is “prevent; also recorded: inhibits phosphorylation of CRAF on serine 338”.
